Source: patent publication US7829560B2, “1,4-disubstituted naphthalenes as inhibitors of P38 MAP kinase” (Arqule, Inc., priority 2004, dated 2010)

Assays:
[1] = test system: TNFα release from THP-1 cells; test: Inhibition of TNFα release from LPS-stimulated THP-1 cells, ELISA; format: cell-based; settings: Homo sapiens, THP-1, THP-1 cells, read-out: [CELL] THP-1, IC50, TNF ALPHA, ELISA
Source text: Compounds of the invention are screened for the ability to inhibit TNFα and IL-1β release from THP-1 cells stimulated with lipopolysaccharide (LPS) in vitro. The ability of compounds to inhibit TNFα and IL-1β release in this in vitro assay is correlated with the inhibition of p38 activity and TNFα and IL-1β expression in vivo, and is therefore an indicator of potential in vivo therapeutic activity (Lee J. C. et al, Ann. N.Y. Acad. Sci. 696: 149-170, 1993 and Nature, 372: 739-746, 1994).
Materials: THP-1 cells from ATCC (TIB202) are maintained at 37° C., 5% CO2 in RPMI 1640 media (available from MediaTech, Herndon, Va.) containing 4.5 g/L glucose, supplemented with 10% fetal bovine serum, 1% penicillin/streptomycin and 50 μM β-mercaptoethanol.
Methods: Test compounds are initially dissolved in RPMI media with 1% DMSO (v/v). Compounds are then serially diluted in RPMI media for all subsequent dilutions. The assay is performed under sterile conditions. THP-1 cells at a culture density of 6-8×10^5 cells/ml are collected and resuspended in the RPMI media at 10^6 cells/ml containing 10% fetal bovine serum, no serum or 1% human serum albumin (HSA). 100 μl of resuspended cells are added to each well, which contain 100 μl of a test compound. Test compounds are prepared at twice the final concentration. Final DMSO concentration is no more than 0.5% (v/v). Cells are preincubated with compound for 30 minutes at 37° C., 5% CO2 prior to stimulation with lipopolysaccharide (LPS) (Sigma L-2880, 4 mg/ml stock in PBS). The final LPS concentration in each well is 10 or 30 μg/ml for TNFα and IL-1β release, respectively. Unstimulated control cell suspensions receive PBS vehicle only. Cell mixtures are incubated for 18 or 48 hours for TNFα and IL-1β prelease, respectively. 150 μl of supernatants are taken and transferred to a fresh plate and stored at −20° C. until further analysis. TNFα and IL-1β levels are measured using ELISA kits from Biosource (Catalog no. KHC3012 for TNFα; KAC1192 for IL-1β). A SpectraMAX 250 is used as the plate reader. Analysis is performed by non-linear regression to generate a dose response curve. The calculated IC50 value is the concentration of the test compound that causes a 50% decrease in TNFα or IL-1β levels.

p38α = molecular target: T1, p38α (Homo sapiens, UniProt Q16539); test: p38 MAP Kinase assay: inhibition of ATF2 phosphorylation, ELISA; format: biochemical; settings: for IC50: ATF2 phosphorylation, read-out: [ENZ] P38 ALPHA, IC50, ELISA; for inhibition at 10 µM: substrate ATF2, read-out: [ENZ] P38 ALPHA, PCT INH, ELISA (10 uM;ATF2) (Percent)
T1 construct: p38 MAP Kinases are recombinant human full-length proteins with an amino-terminal GST fusion; GST (N); purchased Upstate Biotechnology Inc; host or cells: E. coli
In short: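 GST-tagged full-length human p38 MAP kinase with GST-ATF2 (aa 19–96; 1.25 μM) and 40 μM ATP in HEPES pH 7.5 buffer, without (Method I) or with (Method II) 1% human serum albumin. Compound pre-incubated 15 min at room temperature; reaction 30 min at 37 °C; ATF2 Thr69 phosphorylation measured by ELISA (A450).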

T1 sequence (Q16539 whole entry, the tested form may be a part): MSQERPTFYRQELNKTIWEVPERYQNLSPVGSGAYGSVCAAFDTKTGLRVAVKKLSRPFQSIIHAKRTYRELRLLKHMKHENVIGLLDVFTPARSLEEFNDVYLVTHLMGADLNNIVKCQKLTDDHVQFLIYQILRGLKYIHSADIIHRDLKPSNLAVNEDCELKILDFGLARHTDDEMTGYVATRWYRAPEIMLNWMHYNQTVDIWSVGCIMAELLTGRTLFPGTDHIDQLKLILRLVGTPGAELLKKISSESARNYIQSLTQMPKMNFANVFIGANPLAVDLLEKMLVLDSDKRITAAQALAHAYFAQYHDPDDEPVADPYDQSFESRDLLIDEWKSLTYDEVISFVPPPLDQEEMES

| SMILES | IC50 [1] [µM] | IC50 (p38α) [µM] | inhibition at 10 µM (p38α) [%] |
| --- | --- | --- | --- |
| O=C(Nc1ccc(OCCN2CCOCC2)c2ccccc12)c1cc(Br)ccc1Cl [Compound B38] | > 10 | > 10 | – |
| O=C(Nc1ccc(OCCCN2CCC(O)CC2)c2ccccc12)c1cc(F)cc(N2CCCCC2)c1 [Compound B162, 3-Fluoro-N-{4-[3-(4-hydroxy-piperidin-1-yl)-propoxy]-naphthalen-1-yl}-5-piperidin-1-yl-benzamide] | > 10 | 9.89 | 59.5 |
| CC1CCCN(c2cc(C(=O)Nc3ccc(OCCN4CCOCC4)c4ccccc34)ccn2)C1 (centres unmarked) [Compound B126, 3-Methyl-3,4,5,6-tetrahydro-2 H-[1,2′]bipyridinyl-4′-carboxylic acid [4-(2-morpholin-4-yl-ethoxy)-naphthalen-1-yl]-amide] | 0.934 | 0.451 | 85 |
| CN(C)c1ccc(C(=O)Nc2ccc(OCCN3CCOCC3)c3ccccc23)cc1 [Compound B34] | > 10 | 10.7 | – |
| O=C(Nc1ccc(OCCN2CCSCC2)c2ccccc12)c1cccc(N2CCOCC2)c1 [Compound B20] | > 10 | 5.55 | 73.5 |
| O=C(Nc1ccc(OCCN2CCOCC2)c2ccccc12)c1ccnc(N2CCCC2)c1 [Compound B45, N-[4-(2-Morpholin-4-yl-ethoxy)-naphthalen-1-yl]-2-pyrrolidin-1-yl-isonicotinamide] | 1.19 | 2.12 | – |
| O=C(Nc1ccc(OCCN2CCOCC2)c2ccccc12)c1ccc(N2CCOCC2)nc1 [Compound B30] | > 10 | > 10 | – |
| O=C(Nc1ccc(OCCN2CCOCC2)c2ccccc12)c1cc(N2CCOCC2)nc(N2CCCC2)n1 [Compound B47] | 0.843 | > 10 | – |
| O=C(Nc1ccc(OCCN2CCOCC2)c2ccccc12)c1ccnc(N2CCC3(CC2)OCCO3)c1 [Compound B44, 2-(1,4-Dioxa-8-aza-spiro[4.5]dec-8-yl)-N-[4-(2-morpholin-4-yl-ethoxy)-naphthalen-1-yl]-isonicotinamide] | 1.01 | > 10 | – |
| O=C(Nc1ccc(OCCN2CCOCC2)c2ccccc12)c1cccc(-c2ccccc2)c1 [Compound B84, Biphenyl-3-carboxylic acid [4-(2-morpholin-4-yl-ethoxy)-naphthalen-1-yl]-amide] | 2.03 | 0.451 | 88 |
| O=C(Nc1ccc(OCCN2CCOCC2)c2ccccc12)c1cccc(Oc2ccccc2)c1 [Compound B61] | > 10 | 2.3 | – |
| O=C(Nc1ccc(OCCN2CCOCC2)c2ccccc12)c1cccc(-c2ccccc2Cl)c1 [Compound B101] | 2.03 | 0.864 | 87 |
| CC1CCN(c2cc(C(=O)Nc3ccc(OCCN4CCOCC4)c4ccccc34)ccn2)CC1 [Compound B128, 4-Methyl-3,4,5,6-tetrahydro-2 H-[1,2′]bipyridinyl-4′-carboxylic acid [4-(2-morpholin-4-yl-ethoxy)-naphthalen-1-yl]-amide] | 8.71 | 1.15 | 82 |
| CC(=O)N1CCN(CCOc2ccc(NC(=O)c3cc(F)cc(N4CCCCC4)c3)c3ccccc23)CC1 [Compound B167, N-{4-[2-(4-Acetyl-piperazin-1-yl)-ethoxy]-naphthalen-1-yl}-3-fluoro-5-piperidin-1-yl-benzamide] | > 10 | 0.851 | – |
| CC(C)(C)CNc1cccc(C(=O)Nc2ccc(OCCN3CCOCC3)c3ccccc23)c1 [Compound B173, 3-(2,2-Dimethyl-propylamino)-N-[4-(2-morpholin-4-yl-ethoxy)-naphthalen-1-yl]-benzamide] | 2.28 | 0.735 | 89.5 |
| Cc1ccc(C(=O)Nc2ccc(OCCN3CCOCC3)c3ccccc23)cc1N1CCOCC1 [Compound B40, 4-Methyl-3-morpholin-4-yl-N-[4-(2-morpholin-4-yl-ethoxy)-naphthalen-1-yl]-benzamide] | > 10 | 2.49 | – |
| O=C(Nc1ccc(OCCN2CCCCC2)c2ccccc12)c1ccc(CN2CCOCC2)cc1 [Compound B2] | > 10 | > 10 | – |
| Cc1cccc(-c2cccc(C(=O)Nc3ccc(OCCN4CCOCC4)c4ccccc34)c2)c1 [Compound B104] | 4.44 | 0.965 | 66 |
| O=C(Nc1ccc(OCCN2CCOCC2)c2ccccc12)c1cccc(-c2ccc(F)cc2F)c1 [Compound B100] | 1.59 | 0.744 | 86 |
| COc1ccccc1-c1cccc(C(=O)Nc2ccc(OCCN3CCOCC3)c3ccccc23)c1 [Compound B90] | 5.25 | 1.33 | 78 |
| CN1CCN(c2cccc(C(=O)Nc3ccc(OCCN4CCOCC4)c4ccccc34)c2)CC1 [Compound B59] | > 10 | > 10 | – |

Other lines, results leading:

| IC50 [1] [µM] | IC50 (p38α) [µM] | inhibition at 10 µM (p38α) [%] | SMILES |
| --- | --- | --- | --- |
| > 10 | > 10 | – | O=C(Nc1ccc(OCCN2CCOCC2)c2ccccc12)c1cccc(-c2ccc(Cl)c(Cl)c2)c1 [Compound B283] |
| 10.1 | 2.72 | – | O=C(Nc1ccc(OCCN2CCOCC2)c2ccccc12)c1cccc(-c2cccc(F)c2F)c1 [Compound B288] |
| > 10 | 3.84 | – | CC1CCN(c2cc(F)cc(C(=O)Nc3ccc(OCc4nn[nH]n4)c4ccccc34)c2)CC1 [Compound B193, 3-Fluoro-5-(4-methylpiperidin-1-yl)-N-[4-(2H-tetrazol-5-ylmethoxy)-naphthalen-1-yl]-benzamide] |
| > 10 | > 10 | – | CC1CN(c2cc(F)cc(C(=O)Nc3ccc(OCCN4CCOCC4)c4ccccc34)c2)CC(C)O1 (centres unmarked) [Compound B211] |
| 0.136 | 0.0127 | – | O=C(Nc1ccc(Oc2ccnc(NC3(CO)CCCC3)n2)c2ccccc12)c1cc(F)cc(N2CCCCC2)c1 [Compound B399, 3-Fluoro-N-{4-[(2-{[1-(hydroxymethyl)cyclopentyl]amino}pyrimidin-4-yl)oxy]-1-naphthyl}-5-piperidin-1-ylbenzamide] |
| 0.0095 | 0.0032 | – | O=C(Nc1ccc(Oc2ccnc(NC[C@@H]3CCCO3)n2)c2ccccc12)c1cc(F)cc(N2CCOCC2)c1 [Compound B358] |
| 10.6 | 2.03 | – | O=C(Nc1ccc(NCCN2CCOCC2)c2ccccc12)c1cc(F)cc(N2CCCCC2)c1 [Compound B242] |
| 0.0262 | 0.0018 | – | O=C(Nc1ccc(Oc2ccnc(NCC3CCCO3)n2)c2ccccc12)c1cc(F)cc(N2CCCCC2)c1 (centres unmarked) [Compound B386, 3-Fluoro-5-piperidin-1-yl-N-[4-({2-[(tetrahydrofuran-2-ylmethyl)amino]pyrimidin-4-yl}oxy)-1-naphthyl]benzamide] |
| > 10 | 3.19 | – | CC(=O)N1CCN(c2ccc(NC(=O)c3cc(F)cc(N4CCC(C)CC4)c3)c3ccccc23)CC1 [Compound B196] |
| > 1 | 0.0515 | – | N#CNc1nccc(Oc2ccc(NC(=O)c3cc(F)cc(N4CCOCC4)c3)c3ccccc23)n1 [Compound B330, N-(4-{[2-(Cyanoamino)pyrimidin-4-yl]oxy}-1-naphthyl)-3-fluoro-5-morpholin-4-ylbenzamide] |
| > 10 | > 10 | – | Cc1cc(C)c(-c2cccc(C(=O)Nc3ccc(OCCN4CCOCC4)c4ccccc34)c2)cc1C [Compound B302] |
| 3.69 | 0.935 | – | O=C(Nc1ccc(OCCN2CCOCC2)c2ccccc12)c1cccc(-c2ccccc2F)c1 [Compound B278, 2′-Fluoro-biphenyl-3-carboxylic acid [4-(2-morpholin-4-yl-ethoxy)-naphthalen-1-yl]-amide] |
| 9.79 | > 10 | – | N#Cc1ccc(-c2cccc(C(=O)Nc3ccc(OCCN4CCOCC4)c4ccccc34)c2)cc1 [Compound B285] |
| 0.0301 | 0.003 | – | COC(CNc1nccc(Oc2ccc(NC(=O)c3cc(F)cc(N4CCOCC4)c3)c3ccccc23)n1)OC [Compound B357] |
